Literature values, collected in patent US10351593B2, “Derivatives of dolastatin 10 and uses thereof” (NewBio Therapeutics, Inc., priority 2015, dated 2019).

Test system: human carcinoma lines

COc1cccc2c1C(=O)c1c(O)c3c(c(O)c1C2=O)C[C@@](O)(C(=O)CO)C[C@@H]3O[C@H]1C[C@H](N)[C@H](O)[C@H](C)O1 [doxorubicin]
IC50: 0.1 to 0.2 µM
